# Data from PubChem BioAssay (NCI).
#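 Growth conditions: 96-well plates. Treatment: test compound, 48 hours, 5 concentrations. Analysis: linear interpolation between bracketing concentrations; unreached endpoints set to highest concentration. TGI: total growth inhibition.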
# Key:
# Test in all cases: growth of human tumour cells (NCI), 48 h
# SN12C renal = test system: SN12C renal
# HCC-2998 colon = test system: HCC-2998 colon
# K-562 leukemia = test system: K-562 leukemia
# NCI-H460 lung = test system: NCI-H460 lung
# HCT-15 colon = test system: HCT-15 colon
# SF-539 CNS = test system: SF-539 CNS
# HCT-116 colon = test system: HCT-116 colon
# OVCAR-5 ovarian = test system: OVCAR-5 ovarian
# UO-31 renal = test system: UO-31 renal
# TK-10 renal = test system: TK-10 renal
# DU-145 prostate = test system: DU-145 prostate
# MDA-MB-231 breast = test system: MDA-MB-231 breast
# SK-OV-3 ovarian = test system: SK-OV-3 ovarian
# OVCAR-3 ovarian = test system: OVCAR-3 ovarian
# ACHN renal = test system: ACHN renal
# COLO 205 colon = test system: COLO 205 colon
# NCI/ADR-RES ovarian = test system: NCI/ADR-RES ovarian
# SF-295 CNS = test system: SF-295 CNS
# M14 melanoma = test system: M14 melanoma
# A498 renal = test system: A498 renal
# NCI-H522 lung = test system: NCI-H522 lung
# SK-MEL-5 melanoma = test system: SK-MEL-5 melanoma
# MDA-N = test system: MDA-N
# MCF7 breast = test system: MCF7 breast
# UACC-62 melanoma = test system: UACC-62 melanoma
# MDA-MB-435 = test system: MDA-MB-435
# NCI-H23 lung = test system: NCI-H23 lung
# HS 578T breast = test system: HS 578T breast
# OVCAR-8 ovarian = test system: OVCAR-8 ovarian
# U251 CNS = test system: U251 CNS
# SK-MEL-28 melanoma = test system: SK-MEL-28 melanoma
# 786-0 renal = test system: 786-0 renal
# HOP-62 NSCLC = test system: HOP-62 NSCLC
# MALME-3M melanoma = test system: MALME-3M melanoma
# SW-620 colon = test system: SW-620 colon
# SNB-75 CNS = test system: SNB-75 CNS
# BT-549 breast = test system: BT-549 breast
# SK-MEL-2 melanoma = test system: SK-MEL-2 melanoma
# HOP-92 NSCLC = test system: HOP-92 NSCLC
# CAKI-1 renal = test system: CAKI-1 renal
# MOLT-4 leukemia = test system: MOLT-4 leukemia
# OVCAR-4 ovarian = test system: OVCAR-4 ovarian
# NCI-H226 lung = test system: NCI-H226 lung
# A549 NSCLC = test system: A549 NSCLC
# EKVX NSCLC = test system: EKVX NSCLC
# LOX IMVI melanoma = test system: LOX IMVI melanoma
# CCRF-CEM leukemia = test system: CCRF-CEM leukemia
# HT29 colon = test system: HT29 colon
# SR leukemia = test system: SR leukemia
# HL-60(TB) leukemia = test system: HL-60(TB) leukemia
# SF-268 CNS = test system: SF-268 CNS
# UACC-257 melanoma = test system: UACC-257 melanoma
# IGROV1 ovarian = test system: IGROV1 ovarian
# KM12 colon = test system: KM12 colon
# T-47D breast = test system: T-47D breast
# SNB-19 CNS = test system: SNB-19 CNS
# RXF 393 renal = test system: RXF 393 renal
# RPMI-8226 leukemia = test system: RPMI-8226 leukemia
# PC-3 prostate = test system: PC-3 prostate
compound,measurement,setting,value
CNC(=S)N1CCN(C(C)=O)C1=S,TGI,SN12C renal,> 100 µM
same,TGI,HCC-2998 colon,> 100 µM
same,TGI,K-562 leukemia,> 100 µM
same,TGI,NCI-H460 lung,> 100 µM
same,TGI,HCT-15 colon,> 100 µM
same,TGI,SF-539 CNS,52.8 µM
same,TGI,HCT-116 colon,> 100 µM
same,TGI,OVCAR-5 ovarian,> 100 µM
same,TGI,UO-31 renal,> 100 µM
same,TGI,TK-10 renal,> 100 µM
same,TGI,DU-145 prostate,> 100 µM
same,TGI,MDA-MB-231 breast,16 µM
same,TGI,SK-OV-3 ovarian,> 100 µM
same,TGI,OVCAR-3 ovarian,> 100 µM
same,TGI,ACHN renal,> 100 µM
same,TGI,COLO 205 colon,> 100 µM
same,TGI,NCI/ADR-RES ovarian,> 100 µM
same,TGI,SF-295 CNS,> 100 µM
same,TGI,M14 melanoma,> 100 µM
same,TGI,A498 renal,> 100 µM
same,TGI,NCI-H522 lung,> 100 µM
same,TGI,SK-MEL-5 melanoma,> 100 µM
same,TGI,MDA-N,> 100 µM
same,TGI,MCF7 breast,> 100 µM
same,TGI,UACC-62 melanoma,> 100 µM
same,TGI,MDA-MB-435,> 100 µM
same,TGI,NCI-H23 lung,> 100 µM
same,TGI,HS 578T breast,87.5 µM
same,TGI,OVCAR-8 ovarian,> 100 µM
same,TGI,U251 CNS,17.2 µM
same,TGI,SK-MEL-28 melanoma,> 100 µM
same,TGI,786-0 renal,> 100 µM
same,TGI,HOP-62 NSCLC,> 100 µM
same,TGI,MALME-3M melanoma,43.2 µM
same,TGI,SW-620 colon,> 100 µM
same,TGI,SNB-75 CNS,72.9 µM
same,TGI,BT-549 breast,51.7 µM
same,TGI,SK-MEL-2 melanoma,5.36 µM
same,TGI,HOP-92 NSCLC,> 100 µM
same,TGI,CAKI-1 renal,> 100 µM
same,TGI,MOLT-4 leukemia,> 100 µM
same,TGI,OVCAR-4 ovarian,32.1 µM
same,TGI,NCI-H226 lung,62 µM
same,TGI,A549 NSCLC,> 100 µM
same,TGI,EKVX NSCLC,91.9 µM
same,TGI,LOX IMVI melanoma,> 100 µM
same,TGI,CCRF-CEM leukemia,> 100 µM
same,TGI,HT29 colon,> 100 µM
same,TGI,SR leukemia,> 100 µM
same,TGI,HL-60(TB) leukemia,> 100 µM
same,TGI,SF-268 CNS,> 100 µM
same,TGI,UACC-257 melanoma,> 100 µM
same,TGI,IGROV1 ovarian,> 100 µM
same,TGI,KM12 colon,> 100 µM
same,TGI,T-47D breast,90.7 µM
COc1ccc([C@]23CCC4(OCC(C)(C)CO4)[C@H]4CON(O[C@H](O[C@@H]5CCCCC5C(C)(C)c5ccccc5)C2)[C@@H]43)cc1OC (stereo partly specified),TGI,SN12C renal,> 100 µM
same,TGI,HCC-2998 colon,> 100 µM
same,TGI,K-562 leukemia,> 100 µM
same,TGI,NCI-H460 lung,> 100 µM
same,TGI,HCT-15 colon,> 100 µM
same,TGI,SNB-19 CNS,> 100 µM
same,TGI,SF-539 CNS,76.5 µM
same,TGI,HCT-116 colon,> 100 µM
same,TGI,OVCAR-5 ovarian,> 100 µM
same,TGI,RXF 393 renal,> 100 µM
same,TGI,RPMI-8226 leukemia,> 100 µM
same,TGI,UO-31 renal,> 100 µM
same,TGI,TK-10 renal,> 100 µM
same,TGI,DU-145 prostate,> 100 µM
same,TGI,MDA-MB-231 breast,> 100 µM
same,TGI,SK-OV-3 ovarian,> 100 µM
same,TGI,OVCAR-3 ovarian,> 100 µM
same,TGI,COLO 205 colon,> 100 µM
same,TGI,NCI/ADR-RES ovarian,> 100 µM
same,TGI,SF-295 CNS,> 100 µM
same,TGI,M14 melanoma,> 100 µM
same,TGI,A498 renal,> 100 µM
same,TGI,NCI-H522 lung,> 100 µM
same,TGI,SK-MEL-5 melanoma,45.4 µM
same,TGI,MDA-N,> 100 µM
same,TGI,MCF7 breast,> 100 µM
same,TGI,UACC-62 melanoma,> 100 µM
same,TGI,MDA-MB-435,> 100 µM
same,TGI,NCI-H23 lung,> 100 µM
same,TGI,OVCAR-8 ovarian,> 100 µM
same,TGI,U251 CNS,> 100 µM
same,TGI,SK-MEL-28 melanoma,> 100 µM
same,TGI,786-0 renal,> 100 µM
same,TGI,HOP-62 NSCLC,> 100 µM
same,TGI,MALME-3M melanoma,> 100 µM
same,TGI,SW-620 colon,> 100 µM
same,TGI,SNB-75 CNS,> 100 µM
same,TGI,BT-549 breast,> 100 µM
same,TGI,SK-MEL-2 melanoma,> 100 µM
same,TGI,HOP-92 NSCLC,> 100 µM
same,TGI,CAKI-1 renal,39 µM
same,TGI,MOLT-4 leukemia,53.1 µM
same,TGI,OVCAR-4 ovarian,> 100 µM
same,TGI,NCI-H226 lung,> 100 µM
same,TGI,A549 NSCLC,> 100 µM
same,TGI,EKVX NSCLC,> 100 µM
same,TGI,LOX IMVI melanoma,> 100 µM
same,TGI,PC-3 prostate,> 100 µM
same,TGI,CCRF-CEM leukemia,> 100 µM
same,TGI,HT29 colon,> 100 µM
same,TGI,SR leukemia,49.4 µM
same,TGI,HL-60(TB) leukemia,44.4 µM
same,TGI,UACC-257 melanoma,> 100 µM
same,TGI,IGROV1 ovarian,> 100 µM
same,TGI,KM12 colon,> 100 µM
same,TGI,T-47D breast,> 100 µM
